According to patent US10221173B2, “Chemical compounds” (AstraZeneca AB, priority 2017, dated 2019):
In brackets after ≈: the same amount, converted by molar mass.

Key:
[1] = target: estrogen receptor (ERα) in CAMA-1 cells (Homo sapiens (Human), UniProt P03372); assay: Western blotting assay, ER down-regulation in CAMA-1; type: cell-based; conditions: CAMA-1, 100 nM compound, 48 h, vs 100 nM fulvestrant
[2] = target: T1, Estrogen Receptor (ERα) in MCF-7 cells (Homo sapiens (Human), UniProt P03372); assay: Western blotting assay, ER down-regulation in MCF-7; type: cell-based; conditions: MCF-7, 100 nM compound, 48 h, vs 100 nM fulvestrant
[3] = target: T1, Estrogen Receptor (ERα) in MCF-7 cells; assay: MCF-7 ER down-regulation assay (immuno-fluorescence); type: cell-based
[4] = target: recombinant human Estrogen Receptor alpha ligand binding domain (ER alpha-LBD (GST)) (Homo sapiens (Human), UniProt P03372); assay: ERα binding assay (LanthaScreen TR-FRET competition)
[5] = Thermodynamic solubility (shake-flask); type: physicochemical; conditions: aqueous phosphate buffer, 25 °C, pH 7.4, aqueous buffer, thermodynamic from solid, phosphate buffer pH 7.4, 24 hours
[6] = Log D (shake flask, 1-octanol/aqueous buffer); type: physicochemical; conditions: 1-octanol/aqueous buffer, pH 7.4, pH 7.4
hERG potassium channel = hERG potassium channel (Homo sapiens (Human), UniProt Q12809)
[7] = Human plasma protein binding (equilibrium dialysis); type: in vitro ADME
Experimental: The automated equilibrium dialysis assay in human plasma uses the RED (Rapid Equilibrium Dialysis) Device and sample handling. The assay generally runs over two to three days including delivery of results. After dialysis for 18 hours, plasma and buffer samples are prepared for analysis by liquid chromatography and mass spectrometry. Samples are generally tested in singlicates and quantified by LC/MSMS by using a 7-point calibration curve in plasma. The compounds are pooled together in plasma pools up to 10 compounds. Three reference compounds are used in each run, Propranolol, Metoprolol and Warfarin. Warfarin is used as a control in each pool and Propranolol and Metoprolol are placed randomly in each run. An in-house Excel macro is used for preparation of files for the robot and the mass spectrometer and is also used for the calculations of fraction unbound (fu %) in plasma.

Chain of recombinant human Estrogen Receptor alpha ligand binding domain (ER alpha-LBD (GST)) (P03372 307-554): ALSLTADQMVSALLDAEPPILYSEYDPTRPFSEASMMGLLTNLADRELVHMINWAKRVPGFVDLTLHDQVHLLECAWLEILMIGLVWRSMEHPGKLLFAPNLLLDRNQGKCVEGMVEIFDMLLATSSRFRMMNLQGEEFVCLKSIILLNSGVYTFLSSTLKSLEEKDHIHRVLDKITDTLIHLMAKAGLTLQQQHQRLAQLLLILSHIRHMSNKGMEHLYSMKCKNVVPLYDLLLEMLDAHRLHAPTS
Chain of estrogen receptor (ERα) in CAMA-1 cells (P03372 whole entry): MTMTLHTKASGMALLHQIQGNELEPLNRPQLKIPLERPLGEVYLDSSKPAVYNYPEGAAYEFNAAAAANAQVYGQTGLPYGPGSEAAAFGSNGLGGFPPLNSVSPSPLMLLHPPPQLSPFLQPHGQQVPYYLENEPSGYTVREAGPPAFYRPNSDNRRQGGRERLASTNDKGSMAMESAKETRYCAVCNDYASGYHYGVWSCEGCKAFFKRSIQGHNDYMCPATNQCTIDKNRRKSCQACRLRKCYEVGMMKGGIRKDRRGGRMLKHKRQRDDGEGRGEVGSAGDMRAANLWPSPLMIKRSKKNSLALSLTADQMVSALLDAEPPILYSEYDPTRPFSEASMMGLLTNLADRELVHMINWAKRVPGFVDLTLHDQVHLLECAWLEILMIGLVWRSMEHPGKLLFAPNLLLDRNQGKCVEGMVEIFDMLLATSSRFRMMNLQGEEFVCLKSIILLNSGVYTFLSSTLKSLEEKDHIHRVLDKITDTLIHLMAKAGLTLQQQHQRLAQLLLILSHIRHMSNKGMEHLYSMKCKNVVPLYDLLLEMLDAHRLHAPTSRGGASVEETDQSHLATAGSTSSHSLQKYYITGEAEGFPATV
T1 sequence (P03372 whole entry): as above
Chain of hERG potassium channel (Q12809 whole entry): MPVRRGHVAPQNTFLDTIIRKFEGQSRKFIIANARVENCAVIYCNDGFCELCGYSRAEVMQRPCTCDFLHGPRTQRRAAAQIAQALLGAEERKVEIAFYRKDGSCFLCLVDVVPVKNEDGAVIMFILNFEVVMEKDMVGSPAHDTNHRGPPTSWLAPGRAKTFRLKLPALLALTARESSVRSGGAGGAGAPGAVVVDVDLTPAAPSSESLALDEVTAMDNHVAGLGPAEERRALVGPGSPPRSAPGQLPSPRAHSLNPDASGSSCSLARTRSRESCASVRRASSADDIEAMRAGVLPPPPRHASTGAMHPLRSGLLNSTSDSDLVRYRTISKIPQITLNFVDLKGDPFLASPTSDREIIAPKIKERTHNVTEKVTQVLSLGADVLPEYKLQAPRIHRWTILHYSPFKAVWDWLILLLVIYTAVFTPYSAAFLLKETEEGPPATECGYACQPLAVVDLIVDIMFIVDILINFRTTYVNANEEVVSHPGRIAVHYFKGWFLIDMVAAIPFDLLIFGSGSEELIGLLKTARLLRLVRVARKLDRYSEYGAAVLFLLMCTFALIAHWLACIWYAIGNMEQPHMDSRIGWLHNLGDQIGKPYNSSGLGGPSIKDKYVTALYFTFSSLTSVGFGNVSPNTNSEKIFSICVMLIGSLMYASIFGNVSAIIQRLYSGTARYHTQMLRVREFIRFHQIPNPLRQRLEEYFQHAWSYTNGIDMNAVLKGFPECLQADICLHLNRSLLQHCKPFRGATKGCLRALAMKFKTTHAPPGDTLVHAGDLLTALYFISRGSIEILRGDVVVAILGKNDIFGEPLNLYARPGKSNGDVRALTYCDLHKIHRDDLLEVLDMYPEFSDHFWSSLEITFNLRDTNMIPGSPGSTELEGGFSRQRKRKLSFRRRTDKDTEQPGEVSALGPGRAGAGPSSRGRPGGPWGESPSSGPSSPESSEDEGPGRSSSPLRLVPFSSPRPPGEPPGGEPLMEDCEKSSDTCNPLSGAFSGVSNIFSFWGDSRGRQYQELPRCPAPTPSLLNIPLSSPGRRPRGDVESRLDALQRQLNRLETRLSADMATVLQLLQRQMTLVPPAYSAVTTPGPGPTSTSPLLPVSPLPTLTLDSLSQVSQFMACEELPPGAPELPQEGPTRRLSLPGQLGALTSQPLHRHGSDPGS

Compound	CAMA1 Western % ER deg vs Fv [1] [%]	MCF7 Western % ER deg vs Fv [2] [%]	IC50 [3] [nM]	IC50 [4] [nM]	solubility at 24 h [5] [µM]	logD [6]	IC50 (hERG potassium channel) [nM]	Human plasma protein binding (% free) [7] [% free]
C[C@@H]1Cc2c([nH]c3ccccc23)[C@@H](c2c(F)ccc(OCCNCCCF)c2F)N1CC(F)(F)F [Example 9, N-(2-(2,4-difluoro-3-((1R,3R)-3-methyl-2-(2,2,2-trifluoroethyl)-2,3,4,9-tetrahydro-1H-pyrido[3,4-b]indol-1-yl)phenoxy)ethyl)-3-fluoropropan-1-amine]	101	97	0.088	1.2				
C[C@@H]1Cc2c([nH]c3ccccc23)[C@@H](c2cc(OCCNCCCF)ccc2F)N1CC(F)(F)F [Example 10, 3-fluoro-N-(2-(4-fluoro-3-((1R,3R)-3-methyl-2-(2,2,2-trifluoroethyl)-2,3,4,9-tetrahydro-1H-pyrido[3,4-b]indol-1-yl)phenoxy)ethyl)propan-1-amine]	101	94						
COc1ccc(OCCNCCCF)c(F)c1[C@@H]1c2[nH]c3ccccc3c2C[C@@H](C)N1CC(F)(F)F [Example 11, 3-fluoro-N-(2-(2-fluoro-4-methoxy-3-((1R,3R)-3-methyl-2-(2,2,2-trifluoroethyl)-2,3,4,9-tetrahydro-1H-pyrido[3,4-b]indol-1-yl)phenoxy)ethyl)propan-1-amine]	92	94	0.14	1.2				
C[C@@H]1Cc2c([nH]c3ccccc23)[C@@H](c2c(F)ccc(OCCNCCCF)c2F)N1CC(F)(F)CO [Example 14, 3-((1R,3R)-1-(2,6-difluoro-3-(2-((3-fluoropropyl)amino)ethoxy)phenyl)-3-methyl-1,3,4,9-tetrahydro-2H-pyrido[3,4-b]indol-2-yl)-2,2-difluoropropan-1-ol]	95	95						
Cc1c(OCCNCCCF)cccc1[C@@H]1c2[nH]c3ccccc3c2C[C@@H](C)N1CC(F)(F)F [Example 20, 3-fluoro-N-(2-(2-methyl-3-((1R,3R)-3-methyl-2-(2,2,2-trifluoroethyl)-2,3,4,9-tetrahydro-1H-pyrido[3,4-b]indol-1-yl)phenoxy)ethyl)propan-1-amine]	91				11 (≈ 5.25 µg/mL)			
COc1ccc(NCCNCCCF)cc1[C@@H]1c2[nH]c3ccccc3c2C[C@@H](C)N1CC(F)(F)F [Example 40, N1-(3-fluoropropyl)-N2-(4-methoxy-3-((1R,3R)-3-methyl-2-(2,2,2-trifluoroethyl)-2,3,4,9-tetrahydro-1H-pyrido[3,4-b]indol-1-yl)phenyl)ethane-1,2-diamine]	70		0.53	7.9	366 (≈ 180 µg/mL)	3	4100	0.89
Cc1c(OCCNCCCF)ccc(F)c1[C@@H]1c2[nH]c3ccccc3c2C[C@@H](C)N1C[C@H](C)C(=O)O [Example 55, (S)-3-((1R,3R)-1-(6-fluoro-3-(2-((3-fluoropropyl)amino)ethoxy)-2-methylphenyl)-3-methyl-1,3,4,9-tetrahydro-2H-pyrido[3,4-b]indol-2-yl)-2-methylpropanoic acid]	94	89						
Cc1c(OCCNCCCF)ccc(F)c1[C@@H]1c2[nH]c3ccc(F)cc3c2C[C@@H](C)N1C[C@H](C)C(=O)O [Example 57, (S)-3-((1R,3R)-6-fluoro-1-(6-fluoro-3-(2-((3-fluoropropyl)amino)ethoxy)-2-methylphenyl)-3-methyl-1,3,4,9-tetrahydro-2H-pyrido[3,4-b]indol-2-yl)-2-methylpropanoic acid]		93	0.34	2.6				
C[C@@H]1Cc2c([nH]c3ccccc23)[C@@H](c2c(F)cnc(OCCNCCCF)c2F)N1CC(F)(F)CO [Example 64, 3-((1R,3R)-1-(3,5-difluoro-2-(2-((3-fluoropropyl)amino)ethoxy)pyridin-4-yl)-3-methyl-1,3,4,9-tetrahydro-2H-pyrido[3,4-b]indol-2-yl)-2,2-difluoropropan-1-ol]	98	96	0.071	0.96				
C[C@@H]1Cc2c([nH]c3ccccc23)[C@@H](c2c(F)ccc(OCCNCCCF)c2F)N1CC1(F)CC1 [Example 76, N-(2-(2,4-difluoro-3-((1R,3R)-2-((1-fluorocyclopropyl)methyl)-3-methyl-2,3,4,9-tetrahydro-1H-pyrido[3,4-b]indol-1-yl)phenoxy)ethyl)-3-fluoropropan-1-amine]	85	92	0.21	1				
Cc1c(OCCNCCCF)ccc(F)c1[C@@H]1c2[nH]c3ccc(F)cc3c2C[C@@H](C)N1C[C@@H](C)C(=O)O [Example 121, (R)-3-((1R,3R)-6-fluoro-1-(6-fluoro-3-(2-((3-fluoropropyl)amino)ethoxy)-2-methylphenyl)-3-methyl-1,3,4,9-tetrahydro-2H-pyrido[3,4-b]indol-2-yl)-2-methylpropanoic acid]	107	85	0.53	2.8				
Cc1c(OCCNCCC(F)F)ccc(F)c1[C@@H]1c2[nH]c3ccccc3c2C[C@@H](C)N1C[C@@H](C)C(=O)O [Example 123, (R)-3-((1R,3R)-1-(3-(2-((3,3-difluoropropyl)amino)ethoxy)-6-fluoro-2-methylphenyl)-3-methyl-1,3,4,9-tetrahydro-2H-pyrido[3,4-b]indol-2-yl)-2-methylpropanoic acid]	90	91	0.96	11				
Cc1c(OCCNCCC(F)F)ccc(F)c1[C@@H]1c2[nH]c3ccccc3c2C[C@@H](C)N1C[C@H](C)C(=O)O [Example 124, (S)-3-((1R,3R)-1-(3-(2-((3,3-Difluoropropyl)amino)ethoxy)-6-fluoro-2-methylphenyl)-3-methyl-1,3,4,9-tetrahydro-2H-pyrido[3,4-b]indol-2-yl)-2-methylpropanoic acid]	82	93	0.68	3.9				
Cc1c(OCCNCCCF)ccc(F)c1[C@@H]1c2[nH]c3ccccc3c2C[C@@H](C(F)(F)F)N1C[C@H](C)C(=O)O [Example 140, (S)-3-((1R,3S)-1-(6-fluoro-3-(2-((3-fluoropropyl)amino)ethoxy)-2-methylphenyl)-3-(trifluoromethyl)-1,3,4,9-tetrahydro-2H-pyrido[3,4-b]indol-2-yl)-2-methylpropanoic acid]		84	1	1.4				
C[C@@H](CN1[C@H](c2c(F)ccc(OCCNCCCF)c2Cl)c2[nH]c3ccccc3c2C[C@H]1C(F)(F)F)C(=O)O [Example 141]		79	0.98	2.8				
Cc1c(OCCN(C)CCCF)ccc(F)c1[C@@H]1c2[nH]c3ccccc3c2C[C@@H](C)N1C[C@H](C)C(=O)O [Example 143, (S)-3-((1R,3R)-1-(6-fluoro-3-(2-((3-fluoropropyl)(methyl)amino)ethoxy)-2-methylphenyl)-3-methyl-1,3,4,9-tetrahydro-2H-pyrido[3,4-b]indol-2-yl)-2-methylpropanoic acid]	71	87						
Cc1c(OCCN(C)CCCF)ncc(F)c1[C@@H]1c2[nH]c3ccccc3c2C[C@@H](C)N1C[C@H](C)C(=O)O [Example 145, (S)-3-((1R,3R)-1-(5-fluoro-2-(2-((3-fluoropropyl)(methyl)amino)ethoxy)-3-methylpyridin-4-yl)-3-methyl-1,3,4,9-tetrahydro-2H-pyrido[3,4-b]indol-2-yl)-2-methylpropanoic acid]		94						
Cc1c(OCCN(C)CCCF)ncc(F)c1[C@@H]1c2[nH]c3ccccc3c2C[C@@H](C)N1C[C@@H](C)C(=O)O [Example 152, (R)-3-((1R,3R)-1-(5-fluoro-2-(2-((3-fluoropropyl)(methyl)amino)ethoxy)-3-methylpyridin-4-yl)-3-methyl-1,3,4,9-tetrahydro-2H-pyrido[3,4-b]indol-2-yl)-2-methylpropanoic acid]		93						
